# In ChEMBL document CHEMBL1157539, “Thousands of chemical starting points for antimalarial lead identification” (Nature, 2010):
# System: Plasmodium falciparum
# Assay: GSK_TCMDC: Inhibition of Plasmodium falciparum 3D7 in whole erythrocytes, using parasite LDH activity as an index of growth.
# Format: functional, organism-based
# Conditions: Plasmodium falciparum, 3D7
row,SMILES,XC50 [nM]
1,CC1Cc2ccccc2N1S(=O)(=O)c1cccc(C(=O)Nc2nc(-c3ccccn3)cs2)c1 (configuration not stated),1320
2,O=C(Nc1ccc2c(c1)CCN2C1CCN(Cc2ccc(C(F)(F)F)cc2F)C1)c1ccco1 (configuration not stated),510
3,CC(C)(C)c1ccc(CNC(=O)c2ccc(-c3nc4ccc(Cl)cc4[nH]3)cc2)cc1,819
4,CC(C)OC(=O)c1ccc(NC(=O)N[C@@H](Cc2ccc(O)cc2)C(=O)NC2CC3CCC(C2)N3Cc2ccccc2)cc1 (some centres not stated),1080
5,COc1cc(C(=O)N2C(c3nccs3)C(C(=O)N(OC)C(C)c3ccccc3)CC2(CC(C)C)C(=O)OC(C)(C)C)ccc1C(C)(C)C (configuration not stated),1070
6,O=c1cc(NCC2(CNCc3cn(Cc4ccccc4)c4ccccc34)CCCCC2)[nH]c2ccccc12,684
7,CC(CC(=O)NCC1(c2ccc(F)cc2Cl)CCOCC1)C(=O)c1ccc(Cl)cc1 (configuration not stated),856
8,CN(c1ccc(NC(=O)Nc2cc(C(C)(C)C)on2)cc1)c1ccnc(NCCOC(=O)Nc2cc(C(C)(C)C)on2)n1,752
9,CCOc1ccc(CCCON2C(=N)N=C(N)NC2(C)C)cc1,3.2
10,Cc1nc(O)c2c(ccc3ccc(CNc4ccc(C(=O)N[C@@H](CCC(=O)O)C(=O)O)c(F)c4)cc32)n1,402
11,NCc1ccc(-c2ccccc2CN(C(=O)Nc2ccccc2)C2CCN(Cc3ccccc3)CC2)cc1,880
12,O=C(Nc1ccc(N2CCC(Nc3ccccn3)CC2)cc1)c1cnc(Cl)c(Cl)c1,1190
13,Cc1ccc(-c2nnc(Nc3ccc(C(=O)N4CCCCC4)cc3)c3ccccc23)cc1S(=O)(=O)NCC1CCCO1 (configuration not stated),709
14,COc1cc2nc(NCCCN3CCCCC3)nc(NCc3ccccc3)c2cc1OC,998
15,C=Cc1ccccc1C1(O)CCN(CCCCNC(=O)c2ccc(-c3ccc(C#N)cc3)cc2)CC1,518
16,O=C(c1ccc(Cl)cc1)C1CCN(CCCOc2ccc3c(c2)CCNCC3)CC1,1150
17,CN(C)CCCN1CCN(C(=O)c2cccc(-c3noc(C(F)(F)F)n3)c2)CC1,353
18,CCc1ccc2c(c1O)CCN(C)C2Cc1ccccc1Cl (configuration not stated),251
19,O=C(Nc1cccc(Cl)c1)OC1CCCN2CCCCC12 (configuration not stated),1020

row,SMILES,XC50 [nM]
1,O=C(/C=C/c1ccc(Cl)c(Cl)c1)NCCCCCN1CCCN(C(=O)Nc2cc(F)cc(F)c2)CC1,768
2,Cc1cccc(C(=O)Nc2ccnc(N3CCC(N(C)Cc4cccc(O)c4)CC3)c2)c1,920
3,CCc1cn2c3c(cc(C(=O)N[C@@H](Cc4cc(F)cc(F)c4)[C@H](O)CNC4CCCCC4)cc13)N(C)S(=O)(=O)CC2,34.5
4,Cc1ccc(Nc2nc(N/N=C/c3cccc([N+](=O)[O-])c3)nc(Nc3ccccc3)n2)c(C)c1,626
5,O=S(=O)(NCCN1CCCC1)c1cccc(-c2cccc(CNCCc3cccs3)c2)c1,753
6,O=C(Nc1ccc(I)cc1)Nc1ccc(Cn2ncc(N3CCCNCC3)c(Cl)c2=O)cc1,1120
7,Nc1nc(N)c2c(ccc3c2ccn3Cc2cccc(F)c2)n1,3.2
8,CC(=O)N(C)C1CCN(Cc2ccc(-c3cccc(-c4nc5cc(F)ccc5[nH]4)c3)cc2)C1 (configuration not stated),596
9,COc1cccc(NC(=O)Nc2c(-c3cccc(C(F)(F)F)c3)c(C(F)(F)F)nn2C)c1,911
10,Oc1cc(Nc2ccnc3cc(I)ccc23)ccc1F,740
11,Cc1cc(-c2nc3ccc(C(=O)NCc4ccccc4)cc3n2C2CCN(C(=O)c3ccc(-c4ccccc4)cc3)CC2)ccn1,898
12,Oc1ccc2c(CNCCc3ccccc3)c(O)ccc2c1CNCCc1ccccc1,104
13,c1ccc(OCCOc2ccc(Nc3ccnc4cc5ccccc5cc34)cc2)cc1,252
14,COc1ccc2nc3cc(Cl)ccc3c(NCCCCNc3c4ccc(Cl)cc4nc4ccc(OC)cc34)c2c1,160
15,CCn1ccc2c3c(N)nc(N)nc3ccc21,313
16,CC(=O)Nc1ccc(OCCN(CC(F)(F)F)c2ccc(C#N)cc2C(F)(F)F)cc1,767
17,Cn1nc(C(F)(F)F)cc1-c1ccc(C(=O)NC2CCC(CN3CCC(c4c[nH]c5ccccc45)CC3)CC2)s1 (configuration not stated),565
18,O=C(Cc1c[nH]cn1)Nc1cccc(-c2cccc(-c3nc4cc(F)ccc4[nH]3)c2)c1,777
